Legend:
[1] = 298.15 K, 101.33 kPa, Liquid; for mass density: Vibrating tube method
[2] = xn = mol fraction of the nth substance listed; conditions: 298.15 K, 101 kPa, Liquid; for mass density: Vibrating tube method

CCCC[n+]1ccc(C)cc1.O=S(=O)([N-]S(=O)(=O)C(F)(F)F)C(F)(F)F
[1]
Conditions | viscosity [mPa·s]
Concentric cylinders viscometry | 55.7
Falling or rolling sphere viscometry | 56.1

Conditions | mass density [kg/m3]
[1] | 1412.3

CCCC[n+]1ccn(C)c1.O=S(=O)([N-]S(=O)(=O)C(F)(F)F)C(F)(F)F
[1]
Conditions | viscosity [mPa·s]
Concentric cylinders viscometry | 50.9
Falling or rolling sphere viscometry | 51.5

Conditions | mass density [kg/m3]
[1] | 1436.3

CCCC[n+]1ccc(C)cc1.O=S(=O)([N-]S(=O)(=O)C(F)(F)F)C(F)(F)F + O
viscosity [mPa·s], [2]
Conditions | x2 = 0.00167 | x2 = 0.00513 | x2 = 0.01053 | x2 = 0.01985 | x2 = 0.04978 | x2 = 0.1002
Concentric cylinders viscometry | 55.7 | 55.3 | 54.8 | 53.9 | 50.4 | 45.6
Falling or rolling sphere viscometry | 56.1 | 56 | 55.1 | 54.2 | 51.3 | 46

[2]
Conditions | mass density [kg/m3]
x2 = 0.00167 | 1412.27
x2 = 0.00513 | 1412.02
x2 = 0.01053 | 1411.94
x2 = 0.01985 | 1411.55
x2 = 0.04978 | 1410.48
x2 = 0.1002 | 1408.83

CCCC[n+]1ccn(C)c1.O=S(=O)([N-]S(=O)(=O)C(F)(F)F)C(F)(F)F + O
viscosity [mPa·s], [2]
Conditions | x2 = 0.00078 | x2 = 0.00473 | x2 = 0.0101 | x2 = 0.01864 | x2 = 0.05002 | x2 = 0.1001
Concentric cylinders viscometry | 50.9 | 50.6 | 49.9 | 49.3 | 45.9 | 41.7
Falling or rolling sphere viscometry | 51.5 | 50.8 | 50.5 | 49.4 | 46.8 | 42.3

[2]
Conditions | mass density [kg/m3]
x2 = 0.00078 | 1436.26
x2 = 0.00473 | 1436.04
x2 = 0.0101 | 1435.89
x2 = 0.01864 | 1435.57
x2 = 0.05002 | 1434.5
x2 = 0.1001 | 1432.47

CCCCn1cc[n+](C)c1.F[B-](F)(F)F [1-butyl-3-methylimidazolium tetrafluoroborate]
[1]
Conditions | viscosity [mPa·s]
Concentric cylinders viscometry | 108
Falling or rolling sphere viscometry | 111.9

Conditions | mass density [kg/m3]
[1] | 1201.7

CCCCn1cc[n+](C)c1.F[B-](F)(F)F [1-butyl-3-methylimidazolium tetrafluoroborate] + O
viscosity [mPa·s], [2]
Conditions | x2 = 0.00062 | x2 = 0.005 | x2 = 0.00993 | x2 = 0.01995 | x2 = 0.04989 | x2 = 0.09965
Concentric cylinders viscometry | 108 | 105.9 | 103.7 | 99.5 | 87.9 | 71.4
Falling or rolling sphere viscometry | 111.9 | 107.4 | 106.5 | 99.9 | 89.6 | 72.5

[2]
Conditions | mass density [kg/m3]
x2 = 0.00062 | 1201.69
x2 = 0.005 | 1201.55
x2 = 0.00993 | 1201.36
x2 = 0.01995 | 1201.1
x2 = 0.04989 | 1200.18
x2 = 0.09965 | 1198.59

CCCCn1cc[n+](C)c1.O=S(=O)([O-])C(F)(F)F [1-butyl-3-methylimidazolium trifluoromethanesulfonate]
[1]
Conditions | viscosity [mPa·s]
Concentric cylinders viscometry | 90.7
Falling or rolling sphere viscometry | 92.8

Conditions | mass density [kg/m3]
[1] | 1298.3

CCCCn1cc[n+](C)c1.O=S(=O)([O-])C(F)(F)F [1-butyl-3-methylimidazolium trifluoromethanesulfonate] + O
viscosity [mPa·s], [2]
Conditions | x2 = 0.00022 | x2 = 0.00612 | x2 = 0.01 | x2 = 0.01738 | x2 = 0.04999 | x2 = 0.1003
Concentric cylinders viscometry | 90.7 | 89.2 | 88.2 | 86.2 | 79.7 | 70.4
Falling or rolling sphere viscometry | 92.7 | 91.3 | 89.6 | 87.9 | 81.3 | 70.6

[2]
Conditions | mass density [kg/m3]
x2 = 0.00022 | 1298.32
x2 = 0.00612 | 1298.12
x2 = 0.01 | 1297.98
x2 = 0.01738 | 1297.72
x2 = 0.04999 | 1296.84
x2 = 0.1003 | 1295.4

CCCC[N+](C)(C)C.O=S(=O)([N-]S(=O)(=O)C(F)(F)F)C(F)(F)F [butyltrimethylammonium bis(trifluoromethylsulfonyl)imide]
[1]
Conditions | viscosity [mPa·s]
Concentric cylinders viscometry | 104.9
Falling or rolling sphere viscometry | 104

Conditions | mass density [kg/m3]
[1] | 1392.9

CCCC[N+](C)(C)C.O=S(=O)([N-]S(=O)(=O)C(F)(F)F)C(F)(F)F [butyltrimethylammonium bis(trifluoromethylsulfonyl)imide] + O
viscosity [mPa·s], [2]
Conditions | x2 = 6e-05 | x2 = 0.00494 | x2 = 0.01002 | x2 = 0.01995 | x2 = 0.05012 | x2 = 0.09979
Concentric cylinders viscometry | 104 | 103.5 | 101.4 | 98.6 | 87.3 | 73
Falling or rolling sphere viscometry | 105 | 103.6 | 102.8 | 99.6 | 88.2 | 73

[2]
Conditions | mass density [kg/m3]
x2 = 6e-05 | 1392.89
x2 = 0.00494 | 1392.7
x2 = 0.01002 | 1392.61
x2 = 0.01995 | 1392.23
x2 = 0.05012 | 1391.7
x2 = 0.09979 | 1390.15
